{"source": "patent US20240226107A1", "about": "“UBIQUITIN-SPECIFIC PROTEASE 1 (USP1) INHIBITOR” (SIMCERE ZAIMING PHARMACEUTICAL CO., LTD., priority 2021, published 2024)", "key": {"[1]": {"experiment": "Solubility (PBS pH 7.4) of compound solids", "format": "physicochemical", "conditions": "aqueous buffer, thermodynamic from solid, PBS pH 7.4, 25° C.", "description": "The solubility (PBS pH 7.4) of compound solids to be tested was determined by LC/MS/MS. Approximately 1 mg of each compound powder was accurately weighed into a glass vial, and DMSO was added in a volume of 1 mL per milligram of compound. […] In 490 μL of water and acetonitrile (1:1) containing an internal standard, 5 μL of 1 mg/mL solution and 5 μL of PBS pH 7.4 solution were mixed to prepare 10 μg/mL standard concentration solution of the sample to be tested. Then 10 μL of 10 μg/mL solution was diluted in 90 μL of water and acetonitrile (1:1) containing an internal standard to prepare 1 μg/mL standard concentration solution of the sample to be tested. The dilution factor of the standard solution can be adjusted according to the strength of response signals in LC/MS. Approximately 1 mg of each compound powder was accurately weighed into a glass vial, and PBS pH 7.4 solution was added in a volume of 1 mL per milligram of compound. A stir bar was added to each vial, and the solubility sample vial was shaken at 1100 rpm at 25° C. for 24 h. After shaking, the stir bar was removed, and the sample was transferred to a filter plate and filtered using a vacuum manifold. […]\nThe resulting samples were determined by LC/MS/MS. The sample solubility was calculated from peak areas of the solution of the compound to be tested and the standard concentration solution, according to the following equation: […]"}, "[2]": {"target": "USP1 (Recombinant Human His6-USP1/His6-UAF1 Complex Protein) (Homo sapiens (Human), UniProt O94782)", "sequence (O94782 whole entry)": "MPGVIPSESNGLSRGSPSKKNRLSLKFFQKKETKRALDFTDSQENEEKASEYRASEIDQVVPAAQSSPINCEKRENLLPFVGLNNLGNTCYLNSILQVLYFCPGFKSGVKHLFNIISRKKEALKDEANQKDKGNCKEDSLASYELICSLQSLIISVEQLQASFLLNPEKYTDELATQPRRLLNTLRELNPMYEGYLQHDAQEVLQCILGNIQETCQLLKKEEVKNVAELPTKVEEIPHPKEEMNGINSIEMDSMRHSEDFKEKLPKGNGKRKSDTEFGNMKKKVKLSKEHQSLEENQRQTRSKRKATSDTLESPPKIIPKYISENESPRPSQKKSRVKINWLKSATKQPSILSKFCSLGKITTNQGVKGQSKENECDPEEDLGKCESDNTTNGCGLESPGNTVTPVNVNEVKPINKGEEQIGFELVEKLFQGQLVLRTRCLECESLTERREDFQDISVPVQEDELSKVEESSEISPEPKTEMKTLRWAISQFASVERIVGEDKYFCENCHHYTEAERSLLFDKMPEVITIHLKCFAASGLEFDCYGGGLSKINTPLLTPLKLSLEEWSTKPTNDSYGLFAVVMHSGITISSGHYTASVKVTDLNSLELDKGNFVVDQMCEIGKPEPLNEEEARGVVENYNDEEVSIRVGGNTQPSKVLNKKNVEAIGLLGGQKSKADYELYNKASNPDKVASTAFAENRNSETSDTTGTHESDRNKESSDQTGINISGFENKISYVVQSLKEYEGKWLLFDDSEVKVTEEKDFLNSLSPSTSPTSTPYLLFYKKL", "sequence (Q8TAF3 whole entry partner)": "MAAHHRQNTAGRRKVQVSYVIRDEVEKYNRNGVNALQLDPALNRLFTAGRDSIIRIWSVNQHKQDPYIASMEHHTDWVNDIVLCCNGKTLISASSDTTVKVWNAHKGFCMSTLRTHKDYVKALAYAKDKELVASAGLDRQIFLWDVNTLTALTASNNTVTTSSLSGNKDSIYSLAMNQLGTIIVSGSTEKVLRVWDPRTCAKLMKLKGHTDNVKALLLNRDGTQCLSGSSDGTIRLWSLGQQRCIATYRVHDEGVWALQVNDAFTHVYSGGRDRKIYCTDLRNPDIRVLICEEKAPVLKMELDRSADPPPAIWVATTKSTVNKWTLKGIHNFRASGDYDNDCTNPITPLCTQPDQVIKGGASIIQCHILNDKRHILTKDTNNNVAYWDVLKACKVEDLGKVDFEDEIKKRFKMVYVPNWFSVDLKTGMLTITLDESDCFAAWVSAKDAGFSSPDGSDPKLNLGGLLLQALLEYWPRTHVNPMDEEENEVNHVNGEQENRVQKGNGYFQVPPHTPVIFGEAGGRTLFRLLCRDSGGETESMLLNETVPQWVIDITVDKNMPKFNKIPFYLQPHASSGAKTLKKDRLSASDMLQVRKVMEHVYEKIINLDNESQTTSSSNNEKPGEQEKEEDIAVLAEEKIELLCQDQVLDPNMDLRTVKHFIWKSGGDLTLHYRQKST", "experiment": "In vitro activity assay for USP1 (Ub-CHOP2-Reporter deubiquitination assay)", "format": "biochemical", "conditions": "0.5 h incubation at room temperature, read-out: In vitro inhibitory activity of USP1 IC50", "outline": "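His6-USP1/His6-UAF1 complex was mixed with compound in 20 mM Tris-HCl pH 8.0, 2 mM CaCl2, 2 mM β-mercaptoethanol and 0.05% CHAPS. Ub-CHOP2 reporter system plus substrate was added, then incubated 0.5 h at room temperature. IC50 came from a four-parameter logistic fit.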"}}, "note": "Like-named read-outs stand apart in the source and are kept apart here."}
{"smiles": "COc1ncnc(C2CC2)c1-c1ncc2c(n1)N(Cc1ccc(-c3nc(C(F)(F)F)cn3C)cc1)CC(=O)N2C", "note": "[Compound 11, 2-(4-cyclopropyl-6-methoxypyrimidin-5-yl)-5-methyl-8-(4-(1-methyl-4-(trifluoromethyl)-1H-imidazol-2-yl)benzyl)-7,8-dihydropteridin-6(5H)-one]", "values": [{"measurement": "solubility at 24 h", "setting": "[1]; read-out: Calculated solubility", "result": 181, "unit": "µM"}, {"measurement": "solubility at 24 h", "setting": "[1]; read-out: Solubility", "result": 99.7, "unit": "µg/mL"}, {"measurement": "IC50", "setting": "[2]", "result": 45.4, "unit": "nM"}]}
